Laboratory results as given in patent publication US11274106B2, “Topoisomerase inhibitors with antibacterial and anticancer activity” (THE BOARD OF TRUSTEES OF THE UNIVERSITY OF ILLINOIS, priority 2017, dated 2022).

Experiments:
[1] = molecular target: T1, Top1 (Homo sapiens, UniProt P11387); assay: Top1 DNA relaxation assay (pBR322); type: biochemical; details: for Inhibition of Top1 relaxation: supercoiled pBR322, FIG. 3b
T1 sequence (P11387 1-765): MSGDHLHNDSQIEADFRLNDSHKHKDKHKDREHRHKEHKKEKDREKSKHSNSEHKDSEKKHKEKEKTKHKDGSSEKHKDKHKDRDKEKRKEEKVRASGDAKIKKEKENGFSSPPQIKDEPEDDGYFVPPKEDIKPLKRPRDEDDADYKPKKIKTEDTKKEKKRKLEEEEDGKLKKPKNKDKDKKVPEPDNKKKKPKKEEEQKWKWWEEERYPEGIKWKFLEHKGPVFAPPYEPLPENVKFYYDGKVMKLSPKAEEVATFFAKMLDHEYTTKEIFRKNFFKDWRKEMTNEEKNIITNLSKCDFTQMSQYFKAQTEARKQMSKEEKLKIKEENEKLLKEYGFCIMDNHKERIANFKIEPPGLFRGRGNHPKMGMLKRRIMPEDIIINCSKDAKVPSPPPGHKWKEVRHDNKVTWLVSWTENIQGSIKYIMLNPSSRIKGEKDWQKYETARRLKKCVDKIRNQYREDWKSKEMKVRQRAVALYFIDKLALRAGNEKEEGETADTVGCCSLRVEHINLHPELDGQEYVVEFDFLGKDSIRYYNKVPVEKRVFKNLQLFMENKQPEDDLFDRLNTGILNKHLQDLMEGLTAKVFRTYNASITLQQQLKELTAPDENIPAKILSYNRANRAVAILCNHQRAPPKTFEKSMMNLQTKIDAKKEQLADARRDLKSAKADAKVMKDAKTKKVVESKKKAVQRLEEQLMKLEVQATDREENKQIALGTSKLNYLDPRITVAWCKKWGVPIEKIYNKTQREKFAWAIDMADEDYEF
Source text: (§1) FIG. 3. DNM derivatives are dual Top1/Top2 inhibitors with different modes of inhibition. (a) Inhibition of decatenating ability of Top2α with increasing concentrations of ETP, 6DNM-NH3, 6DNM-Pyr, and Ph-6DNM-NH3. K, kinetoplast DNA; OC, open circular; R, relaxed. (b) Inhibition of relaxing ability of Top1 with increasing concentrations of CPT, 6DNM-NH3, 6DNM-Pyr, and Ph-6DNM-NH3. R, relaxed; S, supercoiled. (c) Detection of Top2a-DNA using the ICE Assay. Genomic DNA ([…]) of H460 cells treated with drugs (50 μM, 30 min) was applied to nitrocellulose membrane and immunoblotted for Top2a. (d) Detection of Top1-DNA adducts using ICE Assay. Same procedure as (c) using 1 μg of DNA. (e) Inhibition of ETP-induced poisoning of Top2a. H460 cells treated with indicated concentrations of inhibitor for 30 min prior to treatment with ETP (50 μM). Detection of Top2α as in (c).
To further investigate any mechanistic differences between these structurally related DNM analogues they were also evaluated against the other clinically-targeted mammalian topoisomerase, Top1, using a DNA relaxation assay in which purified Top1 relaxes supercoiled pBR322 and the two forms are separated by agarose gel electrophoresis.

[2] = tested on: HL-60; assay: Cell viability Alamar Blue assay, HL-60; type: cell-based; details: Homo sapiens, HL-60, 72 h, Leukemia, mean ± SEM
Source text: (§2) Topoisomerase inhibitors such as DOX are used as single agent and in combination therapy to treat a wide-range of cancer types.

[3] = tested on: panel of cancer cells; assay: Average over panel of 10 cancer cell lines; type: cell-based; details: 72 hour, read-out: Average (mean) IC50 over the cell line panel
Source text: as §2

[4] = tested on: IMR32; assay: Antiproliferative SRB assay, IMR32; type: cell-based; details: Homo sapiens, IMR-32, 72 h, Neuroblastoma, mean ± SEM
Source text: as §2

[5] = molecular target: T2, Top1cc (Homo sapiens, UniProt P11387); assay: ICE assay for Top1-DNA adducts in H460 cells; type: cell-based; details: for Accumulation of Top1cc (ICE assay): H460 cells, 50 μM, 30 min; for Mode of topoisomerase inhibition: in vitro and cell culture experiments taken together
T2 construct: endogenous in cells; host or cells: H460
T2 sequence (P11387 2-765 limits assumed): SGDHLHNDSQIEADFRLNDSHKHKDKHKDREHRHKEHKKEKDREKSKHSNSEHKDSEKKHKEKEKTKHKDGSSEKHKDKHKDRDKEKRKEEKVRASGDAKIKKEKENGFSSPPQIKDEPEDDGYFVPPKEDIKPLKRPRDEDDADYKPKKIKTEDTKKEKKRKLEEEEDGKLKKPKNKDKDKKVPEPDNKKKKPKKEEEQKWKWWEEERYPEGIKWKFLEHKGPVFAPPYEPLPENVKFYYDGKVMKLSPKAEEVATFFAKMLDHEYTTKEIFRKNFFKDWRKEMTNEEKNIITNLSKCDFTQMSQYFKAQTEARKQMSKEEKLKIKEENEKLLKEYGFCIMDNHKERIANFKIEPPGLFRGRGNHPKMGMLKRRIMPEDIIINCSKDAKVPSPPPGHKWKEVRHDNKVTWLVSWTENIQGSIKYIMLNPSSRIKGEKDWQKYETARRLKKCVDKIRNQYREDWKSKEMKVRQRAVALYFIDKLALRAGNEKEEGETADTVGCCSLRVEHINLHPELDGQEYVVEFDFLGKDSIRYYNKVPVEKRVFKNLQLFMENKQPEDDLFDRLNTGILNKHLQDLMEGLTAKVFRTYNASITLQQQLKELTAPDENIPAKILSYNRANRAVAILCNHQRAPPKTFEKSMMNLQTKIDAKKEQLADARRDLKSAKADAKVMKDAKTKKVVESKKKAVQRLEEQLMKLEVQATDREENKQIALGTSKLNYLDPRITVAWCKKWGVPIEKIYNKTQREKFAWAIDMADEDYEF
Source text: as §1
The in vivo complex of enzyme (ICE) assay can be used to distinguish poisons from catalytic inhibitors. The ICE assay consists of isolating the genomic DNA of cells treated with small molecules in a manner the preserves covalent DNA-protein complexes and applying it to nitrocellulose membranes. Because topoisomerase poisons stabilize the cleavage complexes, DNA-protein complexes can be detected by immunoblotting for specific topoisomerases, whereas catalytic inhibitors produce no such result. To determine if DNM derivatives are acting as poisons or catalytic inhibitors, H460 human lung cells were exposed to 50 μM of the Top2 poison ETP, Ph-6DNM-NH3, 6DNM-NH3, and 6DNM-Pyr and assessed for their ability to stabilize Top2cc. […] In a similar fashion, next investigated was the mode of Top1 inhibition using the ICE assay (FIG. 3b).

SMILES	Fold less potent Top1 inhibitor than 6DNM-Pyr ([1]; DNA relaxation assay)	Inhibition of Top1 relaxation [1]	IC50 [2]	IC50 [3]	IC50 [4]	Accumulation of Top1cc (ICE assay) [5]	Mode of topoisomerase inhibition [5]
Cc1cc(=O)n2c3c(c4c(cc13)c1ccccc1c(=O)n4C)OCC2CN (stereo not shown) [Compound 15]	more than 20 fold	approximately equipotent to the known Top1 inhibitor camptothecin	470 ± 90 nM	164 nM	8.6 ± 0.1 nM	leads to the accumulation of Top1cc	Top1 poison/Top2α catalytic inhibitor
Cc1cc(=O)n(C)c2c3c4c(cc12)c(C)cc(=O)n4C(CN1CCCC1)CO3 (stereo not shown) [Compound 20]		inhibit relaxation at submicromolar concentrations	48 ± 11 nM	25 nM	4.4 ± 0.3 nM	neither 6DNM-NH3 nor 6DNM-Pyr, leads to the accumulation of Top1cc	dual Top1/Top2α catalytic inhibitors
